Laboratory results taken from US8129340B2, “Inhibitors of protein phosphatase 1, GADD34 and protein phosphatase 1/GADD34 complex, preparation and uses thereof” (Institut Gustave Roussy, priority 2006, dated 2012).

Assays:
CRT [1] = assay: Biotinylation of cell surface proteins, 2D gel electrophoresis and mass spectrometry; type: cell-based, murine; settings: CT26 cells, short-term (4 h) treatment, versus untreated
CT26 cells = assay: Phagocytosis of CT26 tumour cells by dendritic cells (FACS, double positive cells); type: cell-based, BALB/c mice; settings: for phagocytosis of drug-treated tumour cells by DC: within a few hours after treatment
Procedure: FIG. 3A, FIG. 3B: Correlation between tumour cell phagocytosis and CRT exposure. Tumour cells labelled with Cell Tracker Green were cultured with CD11c-expressing DC and the percentage of DC taking up tumour cells was determined (A) and correlated with the CRT surface exposure (B), measured as in FIG. 2E.
Mitoxantrone-treated or control cells were incubated with a blocking chicken anti-CRT antibody, followed by detection of phagocytosis by CD.
Cells were transfected with the indicated siRNAs and optionally treated with rCRT, followed by immunoblot (FIG. 3D) detection of surface CRT (FIG. 3E) and phagocytosis by DC (FIG. 3F). Results are triplicates (X±SD) and representative of three independent experiments. * denotes statistically significant differences using the Student t′ test at p<0.001.
BM cells were flushed from the tibias and femurs of BALB/c mice with culture medium composed of RPMI 1640 medium (Invitrogen Life Technologies) supplemented with 10% heat-inactivated FBS (Invitrogen), sodium pyruvate, 50 μM 2-ME (Sigma), 10 mM HEPES (pH 7.4), and penicillin/streptomycin (Invitrogen). After one centrifugation, BM cells were resuspended in Tris-ammonium chloride for 2 min to lyse RBC. After one more centrifugation, BM cells (1×10^6 cells/ml) were cultured in medium supplemented with 100 ng/ml recombinant mouse FLT3 ligand (R&D systems) in 6-well plates (Costar Corning). After 7 days, the non-adherent and loosely adherent cells were harvested with Versene, washed and transferred in 12-well plates (1.5×10^6 cells/plate) for cocultures with tumour cells.
In 12-well plates, […] adherent CT26 cells were labelled with Celltracker Green (Calbiochem) and then incubated with drugs. In some experiments viable CT26 were coated with 2 μg/10^6 cells of chicken anti-CRT antibody (ABR affinity bioreagents) or an isotype control for 30 min prior to washing and feeding to dendritic cells Cs. Alternatively CT26 cells were coated with 2 μg/10^6 cells of rCRT on ice for 30 min and washed twice prior to addition to dendritic cells. Cells were then harvested, washed three times with medium supplemented with FBS and cocultured with immature DC for 2 hours at a ratio of 1:1 and 1:5. At the end of the incubation, cells were harvested with versene, pooled with non-adherent cells present in the supernatant, washed and stained with CD11c-FITC antibody. Phagocytosis was assessed by FACS analysis of double positive cells. Phagocytic indexes refer to the ratio between values obtained at 4° C. and values obtained at 37° C. of co-incubation between DC and tumour cells.

CT26 tumour cells [2] = assay: Anti-tumour vaccination: dying treated CT26 cells injected in one flank, later challenge with live tumour cells; type: in vivo, BALB/c mice; settings: dying CT26 cells treated with agent injected into one flank, live tumour cells in opposite flank 8 days later
ERP57 = assay: Biotinylation of cell surface proteins, 2D gel electrophoresis and mass spectrometry (ERP57 spot); type: cell-based, murine; settings: CT26 cells, short-term (4 h) treatment
CRT [3] = assay: CRT exposure on tumour cell lines of murine origin (MCA205, B16F10, J558); type: cell-based
CT26 tumours [4] = assay: Intratumoural treatment of established CT26 tumours in immunocompetent mice; type: in vivo, BALB/c mice (wild type); settings: for therapeutic effect of single agent on established tumours, immunocompetent mice: single intratumoural injection, 14-day-old CT26 tumours
CT26 tumours [5] = assay: Intratumoural treatment of established CT26 tumours in immunodeficient mice; type: in vivo, athymic nu/nu Balb/c mice; settings: for therapeutic effect of single agent on established tumours, nu/nu mice: single intratumoural injection
cell surface CRT = assay: CRT exposure on enucleated CT26 cells (cytoplasts); type: cell-based, murine
Procedure: FIG. 5A: CRT exposure after anthracyclin treatment in the absence of a nucleus. Intact cells or enucleated cells (cytoplasts) were treated for 2 hours with mitoxantrone, followed by immunofluorescence detection of CRT exposure. Inserts show the effective removal of Hoechst 33342-stainable nuclei from the cytoplasts.
Trypsinized CT26 cells were enucleated as described in the publication of Andreau, K. et al. Contagious apoptosis facilitated by the HIV-1 envelope. Fusion-induced cell-to-cell transmission of a lethal signal. J. Cell Sci. 117, 5643-53 (2004). Briefly, cells were treated in 2 ml of complete RPMI medium containing cytochalasin B (10 μg/ml; Sigma) and DNase I (80 U/ml; Sigma). Cell suspension was adjusted to a final concentration of 5×10^6/ml and incubated at 37° C. for 45 minutes before being layered onto a previously prepared discontinuous Ficoll (Pharmacia) density gradient (3 ml of 100%, in 1 ml of 90% and 3 ml of 55% Ficoll Paque layer containing 5 μg/ml cytochalasin B and 40 U/ml DNase I; gradients were prepared in ultracentrifuge tubes and pre-equilibrated at 37° C. in a CO2 incubator overnight). […] Then the cell surface CRT was detected (see materials and methods) and the viability was determined by with propidium iodine staining (2 μg/ml, Sigma) for 5 min followed by cytofluorometric analysis. […] Phagocytosis was assessed by FACS analysis of double positive cells.

CRT [6] = assay: CRT exposure on tumour cell lines of human origin (HeLa, A549, HCT116); type: cell-based
calreticulin [7] = assay: Calreticulin exposure by immunofluorescence staining and flow cytometry, CT26 cells (peptide test); type: cell-based, murine; settings: 2 hours
Procedure: (§1) HCT116 cells (FIG. 7A) or CT26 cells (FIG. 7B) were cultured in complete mediums supplemented with 10% fetal calf serum alone or in the presence of the control peptide (VKKKKIKREIKI-lkaravafsekv) (SEQ ID NO: 17) or the PP1/GADD34 inhibitory peptide (VKKKKIKREIKI-lkarkvrfsekv, SEQ ID NO: 4. denominated PP1 peptide) for 2 hours. Cells were washed twice with PBS and fixed in PFA (4% w/v) for 5 min. Cells were stained with an antibody against calreticulin (pAb from Abeam, ab2907) at 1:200 dilution or isotype control, in staining buffer (PBS, 1% FCS) for 30 min on ice, followed by washing. An anti-rabbit Alexa fluor 488 immunoglobulin conjugate (Molecular Probes-Invitrogen) diluted at 1:500 was added for an additional 30 min on ice before washing and analysed by flow cytometry (FACScan, Becton Dickinson). Propidium Iodide (50 μg/ml, Becton Dickinson) was added to the samples to label and exclude permeabilized (dead) cells.

calreticulin [8] = assay: Calreticulin exposure by immunofluorescence staining and flow cytometry, HCT116 cells; type: cell-based, human; settings: 2 hours
Procedure: as §1

CT26 colon cancer = assay: Intratumoural peptides with systemic mitomycin C against established CT26 colon cancer (tumor size, survival); type: in vivo, BALB/c mice; settings: 10 micrograms peptide in situ plus systemic mitomycin C
Procedure: CT26 cells were injected se in BALB/c mice. At a size of 20 mm^2, the palpable tumors were directly inoculated in situ with 10 micrograms of either of the three following peptides (see below) alone or together with a systemic treatment with mitomycin C (as described in Obeid et al. Nat Med 2007) or PBS. • 1. Cell-penetrable PP1 inhibitory peptide VKKKKIKREIKI-LKARKVRFSEKV (SEQ ID NO: 4) • 2. Cell-penetrable control peptide VKKKKIKREIKI-LKARAVRFSEKV (SEQ ID NO: 18) • 3. Cell penetration sequence VKKKKIKREIKI (SEQ ID NO: 3) alone admixed together with PP1-inhibitory peptide LKARKVRFSEKV (SEQ ID NO: 2) alone.
5 animals/group were included in this experiment.

DC = DC maturation ex vivo; type: cell-based; settings: alone, over a large range of concentrations
CT26 colon cancer cells = assay: In vivo anti-cancer vaccination: treated tumour cells in one flank and live tumour cells in opposite flank simultaneously; design: species or system BALB/c mice
Procedure: FIG. 4A: In vivo anti-cancer vaccination depends on CRT. CT26 colon cancer cells were transfected with the indicated siRNAs, then treated with rCRT and/or mitoxantrone (as in FIG. 3D) and the anti-tumour response was measured by simultaneously challenging BALB/c mice with mitoxantrone treated tumour cells in one flank and untreated live tumour cells in the opposite flank.
FIG. 4D: CRT-mediated amelioration of the immune response against etoposide-treated tumour cells. CT26 cells were treated for 24 h with etoposide (or PBS) and rCRT was optionally absorbed to the cell surface (inserts), followed by simultaneous injection of the etoposide ±rCRT-treated tumour cells and live tumour cells in opposite flanks and monitoring of tumour growth.
(§2) Tumours were evaluated weekly, using a caliper.

CT26 tumour cells [9] = assay: Local immune response: tumour cells injected into foot pad, IFN-γ secretion by draining popliteal lymph node cells (ELISA); type: in vivo, Balb/c mice
Procedure: FIG. 4B: Priming of T cell responses depending on CRT. CT26 tumour cells were left untransfected or transfected with the indicated siRNAs, then treated with medium alone, mitomycin C or mitoxantrone and injected into the right food pad of Balb/c mice. Five days later, mononuclear cells from the draining popliteal lymph nodes were challenged with freeze-thawed CT26 cells, and IFN-γ secretion was assessed at 72 hrs.
FIG. 4C: Exogenous supply of CRT enhances the immunogenicity of CRT-negative dying cells. CT26 cells lacking CRT expression after depletion of CRT with a siRNA and mitoxantrone treatment or after mitomycin treatment were coated with rCRT (inserts) and then injected in the food pad, followed by assessment of the IFN-γ secretion by cells from the draining lymph nodes as in FIG. 4B.
as §2

[10] = intratumoural injection with etoposide or mitomycin C

COc1cccc2c1C(=O)c1c(O)c3c(c(O)c1C2=O)C[C@@](O)(C(=O)CO)C[C@@H]3O[C@H]1C[C@H](N)[C@H](O)[C@H](C)O1 [doxorubicin]
induction of surface CRT (factor) (CRT [1]): 6 | phagocytosis of drug-treated tumour cells by DC (CT26 cells): acquired the property to be phagocytosed by DC quickly | immunogenicity of cell death (protection against tumour growth, anti-tumour vaccination) (CT26 tumour cells [2]): elicited immunogenic cell death | surface exposure of ERP57 (ERP57): specifically induced

O=C1c2c(O)ccc(O)c2C(=O)c2c(NCCNCCO)ccc(NCCNCCO)c21 [mitoxantrone]
CRT exposure on murine tumour cell lines (CRT [3]): induced CRT exposure | therapeutic effect of single agent on established tumours, immunocompetent mice (CT26 tumours [4]): able to cause their permanent regression in some but not all cases | therapeutic effect of single agent on established tumours, nu/nu mice (CT26 tumours [5]): no cure | phagocytosis of drug-treated tumour cells by DC (CT26 cells): acquired the property to be phagocytosed by DC quickly | time to CRT exposure in cytoplasts (cell surface CRT): ≤ 1 h | CRT exposure on human tumour cell lines (CRT [6]): induced CRT exposure | immunogenicity of cell death (protection against tumour growth, anti-tumour vaccination) (CT26 tumour cells [2]): elicited immunogenic cell death

VKKKKIKREIKI-LKARKVRFSEKV (VKKKKIKREIKILKARKVRFSEKV; Artificial sequence including a fragment of GADD34 and a translocation motif.) [SEQ ID NO:4, fragment of GADD34 fused to a plasma membrane translocation motif]
exposure of calreticulin, CT26 cells (calreticulin [7]): capable of inducing the exposure of calreticulin | exposure of calreticulin, HCT116 cells (calreticulin [8]): capable of inducing the exposure of calreticulin | therapeutic effect of combination with mitomycin C (CT26 colon cancer): synergistic therapeutic effects

B1: rCRT: recombinant CRT protein, which binds to the surface of the cells (protein, UniProt P27797 18-417, looked up)
Calreticulin: EPAVYFKEQFLDGDGWTSRWIESKHKSDFGKFVLSSGKFYGDEEKDKGLQTSQDARFYALSASFEPFSNKGQTLVVQFTVKHEQNIDCGGGYVKLFPNSLDQTDMHGDSEYNIMFGPDICGPGTKKVHVIFNYKGKNVLINKDIRCKDDEFTHLYTLIVRPDNTYEVKIDNSQVESGSLEDDWDFLPPKKIKDPDASKPEDWDERAKIDDPTDSKPEDWDKPEHIPDPDAKKPEDWDEEMDGEWEPPVIQNPEYKGEWKPRQIDNPDYKGTWIHPEIDNPEYSPDPSIYAYDNFGVLGLDLWQVKSGTIFDNFLITNDEAYAEEFGNETWGVTKAAEKQMKDKQDEEQRLKEEEEDKKRKEEEEAEDKEDDEDKDEDEEDEEDKEEDEEEDVPGQAKDEL
DC maturation (DC): could not promote DC maturation ex vivo | effect of rCRT injected into a distant site (CT26 tumours [4]; contralateral subcutaneous rCRT plus intratumoural etoposide): did not ameliorate the antitumoural effects of intratumorally injected etoposide | therapeutic effect combined with a cell death inducer (etoposide or mitomycin C), immunocompetent mice (CT26 tumours [4]; [10]): able to cause tumour regression | therapeutic effect of single agent on established tumours, immunocompetent mice (CT26 tumours [4]): no major therapeutic effect | therapeutic effect combined with a cell death inducer (etoposide or mitomycin C), immunodeficient mice (CT26 tumours [5]; [10]): not in immunodeficient | therapeutic effect of single agent on established tumours, nu/nu mice (CT26 tumours [5]): no major therapeutic effect | restoration of phagocytosis by DC in CRT-siRNA cells (CT26 cells; rCRT added to cell surface of CRT-siRNA transfected cells): could reverse the defect induced by the CRT-specific siRNA | immunogenicity of mitoxantrone-treated CT26 cells (efficacy of anti-tumour vaccination) (CT26 colon cancer cells; cells injected into the flank of Balb/c mice): this defect was restored | anti-tumour immune response to etoposide-treated cells coated with rCRT (CT26 colon cancer cells; etoposide-treated cells coated with rCRT): elicited a vigorous anti-tumour immune response in vivo | anti-cancer immune response to rCRT-coated live cells (CT26 colon cancer cells; rCRT absorbed to cell surface without prior treatment with cell death inducers): failed to elicit an anti-cancer immune response | immunogenicity of mitoxantrone-treated CT26 cells (interferon-γ production by T cells from popliteal lymph node) (CT26 tumour cells [9]; cells injected into the foot pad): this defect was restored | immunogenicity of mitomycin-treated cells coated with rCRT (IFN-γ) (CT26 tumour cells [9]; rCRT absorbed to plasma membrane of mitomycin-treated cells): greatly enhanced the immunogenicity of cells that usually fail to induce an immune response
